Test results published in patent publication US5601801A, “Radiolabelled angiotensin converting enzyme inhibitors” (Merck Frosst Canada, Inc., priority 1994, dated 1997).
Where two headings read alike, the source gives them in different places.

Target: T1, angiotensin converting enzyme (ACE) (Oryctolagus cuniculus, UniProt P12822)
T1 construct: a slurry of 10 g of lyophilized rabbit lung powder (Pel-Freez); tissue Pel-Freez; host or cells: rabbit lung (lyophilized powder, buffer extract)
T1 sequence (P12822 34-1310): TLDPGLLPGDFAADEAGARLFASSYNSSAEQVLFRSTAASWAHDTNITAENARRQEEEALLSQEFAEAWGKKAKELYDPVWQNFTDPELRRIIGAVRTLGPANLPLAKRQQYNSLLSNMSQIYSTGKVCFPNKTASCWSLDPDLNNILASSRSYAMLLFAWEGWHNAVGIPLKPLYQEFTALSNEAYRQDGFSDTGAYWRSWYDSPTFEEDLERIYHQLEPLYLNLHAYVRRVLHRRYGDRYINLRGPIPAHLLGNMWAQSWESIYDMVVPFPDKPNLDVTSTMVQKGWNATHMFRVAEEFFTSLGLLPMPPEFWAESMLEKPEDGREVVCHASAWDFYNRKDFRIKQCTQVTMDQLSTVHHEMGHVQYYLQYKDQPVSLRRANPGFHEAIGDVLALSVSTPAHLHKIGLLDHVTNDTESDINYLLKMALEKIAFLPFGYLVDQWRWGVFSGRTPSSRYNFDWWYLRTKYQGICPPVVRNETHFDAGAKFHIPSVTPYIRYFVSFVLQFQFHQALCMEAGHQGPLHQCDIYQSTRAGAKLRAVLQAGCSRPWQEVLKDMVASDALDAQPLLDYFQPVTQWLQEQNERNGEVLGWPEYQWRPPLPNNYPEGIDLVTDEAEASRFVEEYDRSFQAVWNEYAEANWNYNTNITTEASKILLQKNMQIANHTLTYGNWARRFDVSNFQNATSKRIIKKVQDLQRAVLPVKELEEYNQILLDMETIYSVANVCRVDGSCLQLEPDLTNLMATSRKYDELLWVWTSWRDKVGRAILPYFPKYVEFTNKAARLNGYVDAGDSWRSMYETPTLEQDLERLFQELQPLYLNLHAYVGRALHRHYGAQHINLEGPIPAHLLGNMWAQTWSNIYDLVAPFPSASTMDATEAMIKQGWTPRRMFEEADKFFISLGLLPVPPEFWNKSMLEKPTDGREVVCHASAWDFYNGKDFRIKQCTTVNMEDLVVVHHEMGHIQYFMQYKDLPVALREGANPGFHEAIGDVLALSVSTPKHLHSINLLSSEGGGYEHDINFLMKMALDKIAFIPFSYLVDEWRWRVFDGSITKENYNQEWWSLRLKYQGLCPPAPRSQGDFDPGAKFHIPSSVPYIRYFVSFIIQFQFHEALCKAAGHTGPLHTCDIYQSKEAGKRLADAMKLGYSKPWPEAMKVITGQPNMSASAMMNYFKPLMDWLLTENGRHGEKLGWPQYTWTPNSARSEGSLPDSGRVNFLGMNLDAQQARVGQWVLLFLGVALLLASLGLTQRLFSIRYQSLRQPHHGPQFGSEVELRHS
Test: IC50 Assay (Cushman and Cheung; hippuryl-L-histidyl-L-leucine hydrolysis by rabbit lung powder extract)
Format: biochemical
Experimental: According to the assay of Cushman and Cheung Biochem. Pharmacol 20, 1637, (1971), a slurry of 10 g of lyophilized rabbit lung powder (Pel-Freez) and 100 mL of 50 mM potassium phosphate buffer, pH 8.3, was blended for three one minute intervals followed by centrifugation for 40 minutes at 17,500 rpm. The clear supernatant was assayed for protein by the modified Lowry test and the volume of the rabbit lung powder extract (RLPE) was adjusted with buffer, 100 mM phosphate buffer prepared to yield a pH of 8.3 in the presence of 300 mM NaCl, to give 10-20 mU of angiotensin converting enzyme (ACE) activity in a 100 μL volume. The assay was carried out in 13×100 mm disposable culture tubes, with each assay tube containing 100 μL RLPE, 50 μL of a 12.5 mM solution of hippuryl-L-histidyl-L-leucine (HHL) (Sigma) in a buffer and 100 μL of inhibitor solution made up in buffer. The enzyme is added last to initiate the reaction and the tubes are incubated at 37° C. for one hour. The assay is terminated by the addition of 250 μL of 1M HCl to each tube; the HCl is added before the enzyme in the zero-time control assays. To each tube is added 1.5 mL of ethyl acetate followed by vortex mixing for 15 seconds. After the tubes have been centrifuged at 2,500 rpm for 5 minutes, 1 mL of the ethyl acetate layer is transferred to a clean 12×75 mm disposable culture tube. The ethyl acetate was evaporated by heating at 90° C. in a water bath for 30 minutes. Addition of 1 mL of water to each tube followed by vortex mixing for 15 seconds redissolves the hippuric acid. […]

Row | Compound | A228 ± SD (-log[MIBA] 7.246) | A228 ± SD (-log[MIBA] 8.246) | A228 ± SD (-log[MIBA] 9.246) | A228 ± SD (-log[MIBA] 10.246) | A228 ± SD (-log[MIBA] 11.246) | IC50 (rabbit lung ACE, HHL substrate, pH 8.3, 37° C., one hour, read-out: IC50) [nM] | IC50 [nM] | A228 ± SD (-log[Lisin] 6.206) | A228 ± SD (-log[Lisin] 7.206) | A228 ± SD (-log[Lisin] 8.206) | A228 ± SD (-log[Lisin] 9.206) | A228 ± SD (-log[Lisin] 10.206)
1 | O=C(NCCCC[C@H](N[C@@H](CCc1ccccc1)C(=O)O)C(=O)N1CCC[C@H]1C(=O)O)c1cccc(I)c1 [lisinopril MIBA] | 0.025 ± 0.007 | 0.224 ± 0.016 | 1.196 ± 0.026 | 2.174 ± 0.047 | 2.360 ± 0.060 | 0.6 |  |  |  |  |  | 
2 | NCCCC[C@H](N[C@@H](CCc1ccccc1)C(=O)O)C(=O)N1CCC[C@H]1C(=O)O [lisinopril, reference compound] |  |  |  |  |  |  | 5.4 | 0.029 ± 0.007 | 0.175 ± 0.007 | 0.946 ± 0.012 | 2.275 ± 0.031 | 2.371 ± 0.060
